Numbers after ± are expanded uncertainties.
Assays:
[1] = 298.15 K; 101.33 kPa; Liquid
[2] = refractive index (Na D-line) (dimensionless); settings: 298.15 K; 101.33 kPa; Liquid; Standard Abbe refractometry
[3] = refractive index (Na D-line) (dimensionless); xn = mol fraction of the nth substance listed; settings: 298.15 K, 101 kPa, Liquid, Standard Abbe refractometry

CC(C)CC(C)(C)C [2,2,4-trimethylpentane]
mass density [1]: 688.18 ± 1.3 kg/m3 | refractive index [2]: 1.39267 ± 0.00078

CCO [ethanol] + CC(C)CC(C)(C)C
refractive index ([3]; x1 = 1): 1.36161 ± 0.00078

C=COCCC [propyl vinyl ether]
mass density [1]: 762.98 ± 1.2 kg/m3 | refractive index [2]: 1.39094 ± 0.00078

CO [methanol]
mass density [1]: 786.54 ± 1.2 kg/m3 | refractive index [2]: 1.3267 ± 0.00082

C=COCCC [propyl vinyl ether] + CC(C)CC(C)(C)C
refractive index ([3]; x1 = 0.0503): 1.39117 ± 0.00078 | refractive index ([3]; x1 = 0.1011): 1.39096 ± 0.00078 | refractive index ([3]; x1 = 0.2002): 1.39064 ± 0.00078 | refractive index ([3]; x1 = 0.3002): 1.39044 ± 0.00078 | refractive index ([3]; x1 = 0.3995): 1.39004 ± 0.00078 | refractive index ([3]; x1 = 0.4998): 1.38988 ± 0.00078 | refractive index ([3]; x1 = 0.6003): 1.38967 ± 0.00078 | refractive index ([3]; x1 = 0.7004): 1.38964 ± 0.00078 | refractive index ([3]; x1 = 0.7998): 1.38978 ± 0.00078 | refractive index ([3]; x1 = 0.9002): 1.39013 ± 0.00078 | refractive index ([3]; x1 = 0.9503): 1.39035 ± 0.00078 | refractive index ([3]; x1 = 1): 1.39094 ± 0.00078

CC(C)CC(C)(C)C [2,2,4-trimethylpentane] + C=COCCC
refractive index ([3]; x2 = 0): 1.39267 ± 0.00078

CCO [ethanol]
mass density [1]: 785.32 ± 1.2 kg/m3 | refractive index [2]: 1.36161 ± 0.00078

CC(C)CC(C)(C)C [2,2,4-trimethylpentane] + CCO
refractive index ([3]; x2 = 0): 1.39267 ± 0.00078 | refractive index ([3]; x2 = 0.052): 1.39087 ± 0.00078 | refractive index ([3]; x2 = 0.1002): 1.38995 ± 0.00078 | refractive index ([3]; x2 = 0.199): 1.38855 ± 0.00078 | refractive index ([3]; x2 = 0.2992): 1.38682 ± 0.00078 | refractive index ([3]; x2 = 0.3991): 1.38458 ± 0.00078 | refractive index ([3]; x2 = 0.5005): 1.38228 ± 0.00078 | refractive index ([3]; x2 = 0.6006): 1.37947 ± 0.00078 | refractive index ([3]; x2 = 0.7002): 1.37613 ± 0.00078 | refractive index ([3]; x2 = 0.8006): 1.37214 ± 0.00078 | refractive index ([3]; x2 = 0.8998): 1.36728 ± 0.00078 | refractive index ([3]; x2 = 0.9503): 1.36436 ± 0.00078

CCO [ethanol] + C=COCCC
refractive index ([3]; x2 = 0): 1.36161 ± 0.00078

C=COCCC [propyl vinyl ether] + CCO
refractive index ([3]; x1 = 0.0499): 1.36372 ± 0.00078 | refractive index ([3]; x1 = 0.1): 1.3655 ± 0.00078 | refractive index ([3]; x1 = 0.2002): 1.36949 ± 0.00078 | refractive index ([3]; x1 = 0.2996): 1.37356 ± 0.00078 | refractive index ([3]; x1 = 0.4004): 1.37689 ± 0.00078 | refractive index ([3]; x1 = 0.5006): 1.38018 ± 0.00079 | refractive index ([3]; x1 = 0.6005): 1.38262 ± 0.00078 | refractive index ([3]; x1 = 0.7005): 1.38517 ± 0.00078 | refractive index ([3]; x1 = 0.8002): 1.38724 ± 0.00078 | refractive index ([3]; x1 = 0.8997): 1.38925 ± 0.00078 | refractive index ([3]; x1 = 0.9492): 1.3901 ± 0.00078 | refractive index ([3]; x1 = 1): 1.39094 ± 0.00078

Reference: the NIST ThermoML archive (doi:10.1021/je7003512)
